Like-named read-outs stand apart in the source and are kept apart here. Bridges are numbered along the chain shown (N, C = ends). Where no end group is shown, it is not given here.
Columns and labels:
[1] = target: T1, N-type Ca^2+ channel in IMR-32 cells (Homo sapiens, UniProt Q00975); assay: N-type Ca2+ channel blockade in IMR-32 cells (fluorescent Ca2+ indicator Indo-1); format: cell-based; details: 5 μM nitrendipine present; for inhibition at 1 µM: IMR-32, 1 μM; for inhibition at 10 µM: IMR-32, 10 μM
T1 construct: host or cells: IMR-32 (differentiated with dibutyryl cAMP and bromodeoxyuridine)

DBA/2 mice = assay: Audiogenic seizure (anticonvulsant) test in DBA/2 mice; format: in vivo; details: Mus musculus, intravenous, read-out: DBA/2 mice % Protection
Procedure: A compound of the present invention was dissolved in water using 10% (weight/volume) Emulphor (GAF Corp., Wayne, N.J.) surfactant. Substances were administered by intravenous injection into the retro-orbital venous sinus. All testing was performed fifteen minutes or forty-five minutes after drug injection. All the male mice, 3-4 weeks old were obtained from Jackson Laboratories Bar Harbour, Me. Immediately before anticonvulsant testing, mice were placed upon a wire mesh, four inches square suspended from a steel rod. The square was slowly inserted through 180 degree and mice observed for thirty seconds. Any mouse falling from the wire mesh was scored as ataxia.
Mice were placed into an enclosed acrylic plastic chamber (21 cm height, approximately 30 cm diameter) with a high-frequency speaker (4 cm diameter) in the center of the top lid. An audio signal generator (Protek model B-810) was used to produe a continuous sinusoidal tone that was swept linearly in frequency between 8 kHz and 16 kHz once each 10 msec. The average sound pressure level (SPL) during stimulation was approximately 100 dB at the floor of the chamber. Mice were placed within the chamber and allowed to acclimatize for one minute. DBA/2 mice in the vehicle-treated group responded to the sound stimulus (applied until tonic extension occurred, or for a maximum of sixty seconds) with a characteristic seizure sequence consisting of wild running followed by clonic seizures and later by tonic extension, and finally by respiratory arrest and death in 80% or more of the mice. In vehicle-treated mice, the entire sequence of seizures to respiratory arrest lasts approximately 15-20 seconds.
The incidence of all the seizure phases in the drug-treated and vehicle-treated mice was recorded, and the occurrence of tonic seizures were used for calculating anticonvulsant ED50 values by probit analysis. Mice were used only once for testing at each time and dose point.

male Swiss-Webster mice = assay: Anti-Writhing Test in Mice (AW), acetic acid; format: in vivo
Description: Anti-Writhing Test in Mice (AW) Test Protocol
The purpose of this test is to evaluate drugs for analgesic-like activity. The AW test determines the effect of drugs on the response to a presumed painful stimulus in mice and is used as a preliminary in vivo procedure for the identification of potential analgesic agents.
Known analgesics with low, moderate, or high efficacy in man allow mice to tolerate intra-peritoneal administration of dilute acetic acid as evidenced by lesser incidence of writhing movements. The AW test measures the nociceptive response to acetic acid in mice and provides an objective, reliable, and quantitative estimate of efficacy and potency of potential analgesic compounds. […]
Compounds are dissolved or suspended in physiological saline containing 2% Emulphor. […] Drug doses are expressed as the active moiety and are normally administered to mice (10, 30, and 100 mg/kg IP, SC, PO, or IM) in a volume of 10 mL/kg, 1 hour prior to testing; ICV doses (in μg/kg) are administered in a volume of 0.5 mL/kg, 5 minutes prior to testing. […]
Mice are treated with a dilute solution of acetic acid (0.6%, 10 mL/kg IP) which elicits writhing. […] Writhing movements (abdominal contractions, stretching of the torso and hind legs, and concave arching of the back) are counted for 5 minutes commencing 7 minutes after acetic acid administration. […]

N-type calcium channel = details: Bowersox et al. 1994; cited from earlier work
[2] = tested on: models of ischemia and pain; details: Bowersox et al. 1994; cited from earlier work

T1 sequence (Q00975 whole entry): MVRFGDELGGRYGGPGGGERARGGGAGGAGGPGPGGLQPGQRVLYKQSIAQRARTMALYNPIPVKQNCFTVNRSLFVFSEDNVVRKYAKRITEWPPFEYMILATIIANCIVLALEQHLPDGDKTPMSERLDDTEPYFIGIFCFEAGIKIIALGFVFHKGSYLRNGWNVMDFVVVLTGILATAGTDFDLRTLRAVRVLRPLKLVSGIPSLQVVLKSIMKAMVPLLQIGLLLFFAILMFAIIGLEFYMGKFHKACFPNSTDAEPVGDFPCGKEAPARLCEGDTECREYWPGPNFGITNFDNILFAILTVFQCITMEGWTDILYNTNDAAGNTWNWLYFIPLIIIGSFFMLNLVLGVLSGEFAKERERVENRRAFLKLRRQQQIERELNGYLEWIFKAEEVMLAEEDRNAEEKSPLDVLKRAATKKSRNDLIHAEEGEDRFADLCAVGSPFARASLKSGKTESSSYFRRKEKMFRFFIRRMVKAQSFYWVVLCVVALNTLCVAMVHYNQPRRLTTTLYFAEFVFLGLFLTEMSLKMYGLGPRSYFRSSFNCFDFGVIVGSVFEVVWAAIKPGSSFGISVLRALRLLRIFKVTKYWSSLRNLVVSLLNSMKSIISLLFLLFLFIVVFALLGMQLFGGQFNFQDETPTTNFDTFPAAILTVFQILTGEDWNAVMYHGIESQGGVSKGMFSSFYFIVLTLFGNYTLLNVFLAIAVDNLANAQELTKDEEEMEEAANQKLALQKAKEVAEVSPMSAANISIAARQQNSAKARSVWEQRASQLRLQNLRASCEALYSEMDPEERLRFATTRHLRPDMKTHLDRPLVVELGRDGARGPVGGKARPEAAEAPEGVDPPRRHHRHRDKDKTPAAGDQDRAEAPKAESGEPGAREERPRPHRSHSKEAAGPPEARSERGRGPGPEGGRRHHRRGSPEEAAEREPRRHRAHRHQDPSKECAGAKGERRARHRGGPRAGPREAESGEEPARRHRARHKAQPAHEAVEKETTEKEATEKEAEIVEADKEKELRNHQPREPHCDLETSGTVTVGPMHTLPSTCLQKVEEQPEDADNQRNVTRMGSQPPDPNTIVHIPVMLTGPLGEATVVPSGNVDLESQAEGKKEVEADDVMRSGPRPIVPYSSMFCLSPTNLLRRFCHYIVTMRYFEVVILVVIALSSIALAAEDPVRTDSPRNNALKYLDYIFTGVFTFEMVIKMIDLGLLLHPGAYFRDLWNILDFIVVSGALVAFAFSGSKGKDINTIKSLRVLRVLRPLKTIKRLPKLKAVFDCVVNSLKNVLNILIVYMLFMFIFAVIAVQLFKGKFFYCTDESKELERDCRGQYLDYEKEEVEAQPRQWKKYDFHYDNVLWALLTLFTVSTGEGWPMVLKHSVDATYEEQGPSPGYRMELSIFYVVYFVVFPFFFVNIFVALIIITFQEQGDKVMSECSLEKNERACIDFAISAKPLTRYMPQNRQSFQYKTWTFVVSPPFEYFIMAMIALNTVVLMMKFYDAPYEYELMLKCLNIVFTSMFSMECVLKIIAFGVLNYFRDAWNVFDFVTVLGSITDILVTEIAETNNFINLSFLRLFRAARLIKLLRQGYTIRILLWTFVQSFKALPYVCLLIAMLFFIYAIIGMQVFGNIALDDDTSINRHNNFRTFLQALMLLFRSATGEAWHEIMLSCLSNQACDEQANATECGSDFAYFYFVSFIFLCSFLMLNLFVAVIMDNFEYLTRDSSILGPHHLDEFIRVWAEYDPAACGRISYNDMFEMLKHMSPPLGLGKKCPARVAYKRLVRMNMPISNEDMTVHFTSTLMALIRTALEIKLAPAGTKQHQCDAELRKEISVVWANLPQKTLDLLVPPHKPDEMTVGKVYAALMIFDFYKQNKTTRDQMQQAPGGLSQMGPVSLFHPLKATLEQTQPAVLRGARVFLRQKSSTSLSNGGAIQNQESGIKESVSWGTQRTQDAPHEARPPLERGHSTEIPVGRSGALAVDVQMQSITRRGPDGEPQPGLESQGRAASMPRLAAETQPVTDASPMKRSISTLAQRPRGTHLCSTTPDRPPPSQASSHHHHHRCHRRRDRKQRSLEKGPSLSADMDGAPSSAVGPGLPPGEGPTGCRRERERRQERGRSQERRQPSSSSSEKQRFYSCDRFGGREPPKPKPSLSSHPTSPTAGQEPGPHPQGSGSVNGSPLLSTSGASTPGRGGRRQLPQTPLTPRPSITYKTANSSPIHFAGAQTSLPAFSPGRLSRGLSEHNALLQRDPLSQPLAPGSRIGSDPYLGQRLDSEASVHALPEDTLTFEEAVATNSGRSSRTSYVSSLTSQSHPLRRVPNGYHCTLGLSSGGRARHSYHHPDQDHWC

| Compound | inhibition at 1 µM [1] | inhibition at 10 µM [1] | responders at 10 mg/kg (DBA/2 mice) | further results |
| --- | --- | --- | --- | --- |
| CC(C)=CCN(c1ccc(OCc2ccccc2)cc1)C1CCN(Cc2ccc(O)cc2)CC1 [Example 5, 4-{4-[(4-Benzyloxy-phenyl)-(3-methyl-but-2-enyl)-amino]-piperidin-1-ylmethyl}-phenol] | 47% | 100% | 80% |  |
| CC(C)=CCN(c1ccc(OCc2ccccc2)cc1)C1CCN(Cc2ccc(N(C)C)cc2)CC1 [Example 6, (4-Benzyloxy-phenyl)-[1-(4-dimethylamino-benzyl)-piperidin-4-yl]-(3-methyl-but-2-enyl)-amine] |  |  | 100% | responders at 30 mg/kg (DBA/2 mice; 30 mg/kg): 100% |
| CC(C)=CCN(c1ccc(OCc2ccccc2)cc1)C1CCN(Cc2ccccc2)CC1 [Example 19, (4-Benzyloxy-phenyl)-(1-benzyl-piperidin4-yl)-(3-methyl-but-2-enyl)-amine] |  |  | 80% | IC50 [1]: 0.72 µM |
| CC(C)=CCN(c1ccc(OCc2ccccc2)cc1)C1CCN(CCC(C)(C)C)CC1 [Example 2, (4-Benzyloxy-phenyl)-[1-(3,3-dimethyl-butyl)-piperidin-4-yl]-(3-methyl-but-2-enyl)-amine] | 62% | 93% | 80% |  |
| CC(C)=CCN(c1ccc(OCc2ccccc2)cc1)C1CCN(CCC(C)C)CC1 [Example 1, (4-Benzyloxy-phenyl)-(3-methyl-but-2-enyl)-[1-(3-methyl-butyl)-piperidin-4-yl]-amine] | 40% | 79% |  | responders at 30 mg/kg (DBA/2 mice; 30 mg/kg): 100% |
| CC(C)=CCN(c1ccc(OCc2ccccc2)cc1)C1CCN(Cc2c[nH]cn2)CC1 [Example 8, (4-Benzyloxy-phenyl)-[1(1H-imidazol-4-ylmethyl)-piperidin-4-yl]-(3-methyl-but-2-enyl)-amine] | 16% | 71% | 60% |  |
| CC(C)=CCN(c1ccc(OCc2ccccc2)cc1)C1CCN(Cc2ccc[nH]2)CC1 [Example 7, (4-Benzyloxy-phenyl)-(3-methyl-but-2-enyl)-[1-(1H-pyrrol-2-ylmethyl)-piperidin-4-yl]-amine] |  |  | 100% | responders at 30 mg/kg (DBA/2 mice; 30 mg/kg): 100% |
| CC(C)=CCN(c1ccc(OCc2ccccc2)cc1)C1CCN(C(=O)C2CN(C(C)C)CCN2CCC(C)C)CC1 (stereo not shown) [Example 15, {4-[(4-Benzyloxy-phenyl)-(3-methyl-but-2-enyl)-amino]-piperidin-1-yl}-[4-isopropyl-1-(3-methyl-butyl)-piperazin-2-yl]-methanone] | 51% | 92% | 20% | responders at 30 mg/kg (DBA/2 mice; 0.75 h, 30 mg/kg (45 min)): 100% |
| CC(C)=CCN(c1ccc(OCc2ccccc2)cc1)C1CCN(C(=O)[C@@H](O)CC(C)C)CC1 [Example 44, (S)-1-{4-[(4-Benzyloxy-phenyl)-(3-methyl-but-2-enyl)-amino]-piperidin-1-yl}-2-hydroxy-4-methyl-pentan-1-one] | 64% | 107% |  | responders at 30 mg/kg (DBA/2 mice; 30 mg/kg): 100%; Anti-Writhing % Protection (male Swiss-Webster mice; 10 mg/kg): 30%; Anti-Writhing % Protection (male Swiss-Webster mice; 30 mg/kg): 100% |
| SNX-111: selective N-type calcium channel blocker (CKGKGAKCSRLMYDCCTGSCRSGKC-NH2; disulfide 1-16, 15-25, 8-20; UniProt P05484 46-70, looked up) |  |  |  | N-type calcium channel blockade selectivity (N-type calcium channel): selective N-type calcium channel blocker; activity in models of ischemia and pain [2]: demonstrated activity in a number of models of ischemia and pain |
| CC(C)=CCN(c1ccc(OCc2ccccc2)cc1)C1CCN(CCC(C)O)CC1 (stereo not shown) [Example 20, 4-{4-[(4-Benzyloxy-phenyl)-(3-methyl-but-2-enyl)-aminol]-piperidin-1-yl}-butan-2-ol] |  |  | 40% | IC50 [1]: 3 µM |
| CC(C)=CCN(c1cccc(OCc2ccccc2)c1)C1CCN(CCC(C)(C)C)CC1 [Example 46, (3-Benzyloxy-phenyl)-[1-(3,3-dimethyl-butyl)-piperidin-4-yl]-(3-methyl-but-2-enyl)-amine] | 55% | 98% |  |  |
| CC(C)=CCN(c1ccc(OCc2ccccc2)cc1)C1CCN(Cc2ccc(F)cc2)CC1 [Example 25, (4-Benzyloxy-phenyl)-[1-(4-fluoro-benzyl)-piperidin4-yl]-(3-methyl-but-2-enyl)-amine] | 62% |  |  |  |
| CC(C)=CCN(c1ccc(C(C)C)cc1)C1CCN(Cc2cccnc2)CC1 [Example 30, (4-Isopropyl-phenyl)-(3-methyl-but-2-enyl)-(1-pyridin-3-ylmethyl-piperidin-4-yl)-amine] | 18% | 79% |  |  |
| CC(C)CCN1CCC(N(CCC(C)C)c2ccc(OCC3CCCCC3)cc2)CC1 [Example 40, (4-Cyclohexylmethoxy-phenyl)-(3-methyl-butyl)-[1-(3-methyl-butyl)-piperidin-4-yl]-amine] | 72% |  |  |  |
